Measurements: ChEMBL document CHEMBL5696441 (Nat Chem Biol, 2011)

How the values were obtained:
[1] = biological target: T1, Serine/threonine-protein kinase Nek2 (Homo sapiens) (UniProt P51955); experiment: Inhibition of human NEK2 assessed as residual activity at 1 uM using RB-CTF as substrate in presence of 33P-ATP by ProQinase assay relative to control
T1 sequence (whole entry): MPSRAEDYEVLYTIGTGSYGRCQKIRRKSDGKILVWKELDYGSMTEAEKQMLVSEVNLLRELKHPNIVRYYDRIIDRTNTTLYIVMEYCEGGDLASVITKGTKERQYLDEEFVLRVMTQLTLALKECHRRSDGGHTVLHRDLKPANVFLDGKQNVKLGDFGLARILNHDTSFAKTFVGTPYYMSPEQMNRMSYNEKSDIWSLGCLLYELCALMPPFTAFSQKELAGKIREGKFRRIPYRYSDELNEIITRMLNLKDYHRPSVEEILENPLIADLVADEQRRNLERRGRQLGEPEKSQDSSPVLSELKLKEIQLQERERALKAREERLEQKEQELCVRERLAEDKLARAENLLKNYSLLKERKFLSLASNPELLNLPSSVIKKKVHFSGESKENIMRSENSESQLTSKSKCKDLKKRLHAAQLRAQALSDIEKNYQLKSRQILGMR

[2] = biological target: Insulin-like growth factor 1 receptor (Homo sapiens) (UniProt P08069); experiment: Inhibition of human IGF1R assessed as residual activity at 1 uM using polyEY as substrate in presence of 33P-ATP by ProQinase assay relative to control
[3] = biological target: Dual specificity protein kinase CLK3 (Homo sapiens) (UniProt P49761); experiment: Inhibition of CLK3 (unknown origin) assessed as remaining activity at 1 uM by Kinome scan method relative to control
Sequence of Dual specificity protein kinase CLK3 (Homo sapiens) (P49761 whole entry, looked up): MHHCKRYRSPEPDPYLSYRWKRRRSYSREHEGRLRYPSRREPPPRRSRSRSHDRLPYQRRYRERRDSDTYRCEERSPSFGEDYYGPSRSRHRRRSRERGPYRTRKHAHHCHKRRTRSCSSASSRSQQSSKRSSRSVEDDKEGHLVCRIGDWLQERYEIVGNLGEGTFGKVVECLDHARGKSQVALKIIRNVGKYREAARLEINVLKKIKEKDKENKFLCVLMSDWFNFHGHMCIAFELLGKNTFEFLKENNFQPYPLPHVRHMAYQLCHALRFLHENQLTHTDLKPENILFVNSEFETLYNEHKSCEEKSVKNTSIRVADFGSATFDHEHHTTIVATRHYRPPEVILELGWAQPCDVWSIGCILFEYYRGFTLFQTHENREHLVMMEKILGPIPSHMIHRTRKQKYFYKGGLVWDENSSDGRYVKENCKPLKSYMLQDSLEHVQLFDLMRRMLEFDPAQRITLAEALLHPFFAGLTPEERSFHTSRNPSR

[4] = biological target: Serine/threonine-protein kinase PAK 1 (Homo sapiens) (UniProt Q13153); experiment: Inhibition of human PAK1 assessed as residual activity at 1 uM using bio-4xCHKT as substrate in presence of 33P-ATP by ProQinase assay relative to control
Sequence of Serine/threonine-protein kinase PAK 1 (Homo sapiens) (Q13153 whole entry): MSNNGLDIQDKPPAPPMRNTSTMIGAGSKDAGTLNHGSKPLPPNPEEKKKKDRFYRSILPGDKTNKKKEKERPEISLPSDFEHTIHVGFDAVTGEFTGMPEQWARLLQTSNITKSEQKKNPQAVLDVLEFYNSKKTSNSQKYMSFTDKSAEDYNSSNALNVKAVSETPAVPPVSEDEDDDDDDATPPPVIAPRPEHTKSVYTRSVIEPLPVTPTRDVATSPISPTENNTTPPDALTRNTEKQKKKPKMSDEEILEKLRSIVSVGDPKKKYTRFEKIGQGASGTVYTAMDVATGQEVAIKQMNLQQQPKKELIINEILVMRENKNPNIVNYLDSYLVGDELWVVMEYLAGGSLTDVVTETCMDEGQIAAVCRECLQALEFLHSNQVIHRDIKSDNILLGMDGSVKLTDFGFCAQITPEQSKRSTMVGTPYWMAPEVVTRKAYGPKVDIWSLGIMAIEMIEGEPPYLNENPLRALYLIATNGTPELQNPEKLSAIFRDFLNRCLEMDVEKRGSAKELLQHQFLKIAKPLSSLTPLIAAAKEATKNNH

[5] = biological target: Bone morphogenetic protein receptor type-1A (Homo sapiens) (UniProt P36894); experiment: Inhibition of human BMPR1A assessed as residual activity at 1 uM using casein as substrate in presence of 33P-ATP by ProQinase assay relative to control
[6] = biological target: Serine/threonine-protein kinase PRP4 homolog (Homo sapiens) (UniProt Q13523); experiment: Inhibition of PRP4 (unknown origin) assessed as remaining activity at 1 uM by Kinome scan method relative to control
Sequence of Serine/threonine-protein kinase PRP4 homolog (Homo sapiens) (Q13523 whole entry): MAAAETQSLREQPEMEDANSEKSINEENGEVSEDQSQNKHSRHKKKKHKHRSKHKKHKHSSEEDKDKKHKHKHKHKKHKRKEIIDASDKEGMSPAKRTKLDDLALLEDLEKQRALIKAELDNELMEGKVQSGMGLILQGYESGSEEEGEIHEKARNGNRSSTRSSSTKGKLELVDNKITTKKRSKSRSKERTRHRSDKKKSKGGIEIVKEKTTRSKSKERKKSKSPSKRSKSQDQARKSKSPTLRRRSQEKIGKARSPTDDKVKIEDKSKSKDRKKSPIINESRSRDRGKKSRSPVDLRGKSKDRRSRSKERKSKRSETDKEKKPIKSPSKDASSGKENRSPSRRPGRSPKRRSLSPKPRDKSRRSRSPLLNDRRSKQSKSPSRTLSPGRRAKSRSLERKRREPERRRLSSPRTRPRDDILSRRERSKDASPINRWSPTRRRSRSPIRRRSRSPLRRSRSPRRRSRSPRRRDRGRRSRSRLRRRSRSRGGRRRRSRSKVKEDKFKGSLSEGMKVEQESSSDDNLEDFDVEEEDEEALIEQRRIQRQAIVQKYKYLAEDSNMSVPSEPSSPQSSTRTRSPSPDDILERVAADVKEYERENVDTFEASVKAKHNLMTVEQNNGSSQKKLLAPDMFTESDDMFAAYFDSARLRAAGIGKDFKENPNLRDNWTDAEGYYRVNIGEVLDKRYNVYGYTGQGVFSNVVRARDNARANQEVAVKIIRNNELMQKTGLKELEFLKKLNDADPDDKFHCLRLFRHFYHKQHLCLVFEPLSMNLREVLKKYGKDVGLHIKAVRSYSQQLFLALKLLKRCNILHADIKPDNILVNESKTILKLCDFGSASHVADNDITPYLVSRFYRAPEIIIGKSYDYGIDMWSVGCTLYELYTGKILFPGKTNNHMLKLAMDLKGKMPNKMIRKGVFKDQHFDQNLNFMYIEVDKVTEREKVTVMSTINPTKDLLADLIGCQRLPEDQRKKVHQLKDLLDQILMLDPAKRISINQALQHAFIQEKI

[7] = biological target: ALK tyrosine kinase receptor (Homo sapiens) (UniProt Q9UM73); experiment: Inhibition of human ALK assessed as residual activity at 1 uM using PolyEY as substrate in presence of 33P-ATP by ProQinase assay relative to control
Sequence of ALK tyrosine kinase receptor (Homo sapiens) (Q9UM73 19-1620 limits assumed): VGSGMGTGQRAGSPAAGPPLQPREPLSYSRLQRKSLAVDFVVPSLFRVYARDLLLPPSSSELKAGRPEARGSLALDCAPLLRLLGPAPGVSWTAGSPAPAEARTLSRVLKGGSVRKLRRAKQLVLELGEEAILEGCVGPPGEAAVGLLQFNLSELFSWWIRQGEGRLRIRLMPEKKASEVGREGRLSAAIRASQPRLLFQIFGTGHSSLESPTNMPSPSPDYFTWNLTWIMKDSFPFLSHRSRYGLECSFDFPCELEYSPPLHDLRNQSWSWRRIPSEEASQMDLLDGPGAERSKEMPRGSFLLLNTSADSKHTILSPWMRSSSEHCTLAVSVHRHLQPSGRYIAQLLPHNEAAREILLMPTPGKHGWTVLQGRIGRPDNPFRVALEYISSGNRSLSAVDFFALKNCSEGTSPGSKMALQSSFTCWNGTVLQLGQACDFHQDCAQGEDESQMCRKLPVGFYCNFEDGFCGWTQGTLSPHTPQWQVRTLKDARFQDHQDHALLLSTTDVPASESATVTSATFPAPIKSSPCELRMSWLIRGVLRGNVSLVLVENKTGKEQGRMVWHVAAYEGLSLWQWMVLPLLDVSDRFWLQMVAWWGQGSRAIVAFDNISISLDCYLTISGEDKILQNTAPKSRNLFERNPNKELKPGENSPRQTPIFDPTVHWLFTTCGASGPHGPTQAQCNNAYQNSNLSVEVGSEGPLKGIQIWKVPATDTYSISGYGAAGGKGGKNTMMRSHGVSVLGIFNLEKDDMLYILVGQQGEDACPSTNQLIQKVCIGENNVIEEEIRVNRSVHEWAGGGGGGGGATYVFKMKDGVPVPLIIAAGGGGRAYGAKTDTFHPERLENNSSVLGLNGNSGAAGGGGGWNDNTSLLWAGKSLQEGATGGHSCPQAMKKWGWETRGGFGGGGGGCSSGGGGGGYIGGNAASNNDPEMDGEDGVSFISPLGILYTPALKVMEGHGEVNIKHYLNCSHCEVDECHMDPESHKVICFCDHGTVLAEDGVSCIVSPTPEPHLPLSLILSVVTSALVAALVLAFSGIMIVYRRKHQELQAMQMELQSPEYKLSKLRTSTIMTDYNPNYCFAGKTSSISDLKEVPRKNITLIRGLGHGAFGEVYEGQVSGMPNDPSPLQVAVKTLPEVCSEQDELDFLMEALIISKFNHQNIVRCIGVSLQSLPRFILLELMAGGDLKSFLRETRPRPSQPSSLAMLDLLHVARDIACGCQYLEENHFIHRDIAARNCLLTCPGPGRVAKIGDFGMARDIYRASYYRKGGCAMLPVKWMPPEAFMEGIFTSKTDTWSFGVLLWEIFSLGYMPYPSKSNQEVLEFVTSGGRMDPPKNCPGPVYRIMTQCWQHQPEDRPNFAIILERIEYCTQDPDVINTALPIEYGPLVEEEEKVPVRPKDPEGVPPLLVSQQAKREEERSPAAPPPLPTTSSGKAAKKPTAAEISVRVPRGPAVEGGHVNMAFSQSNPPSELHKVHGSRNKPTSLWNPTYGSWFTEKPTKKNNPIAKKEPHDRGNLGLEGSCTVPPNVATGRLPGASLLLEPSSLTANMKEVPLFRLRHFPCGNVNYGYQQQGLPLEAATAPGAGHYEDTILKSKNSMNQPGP

[8] = biological target: SRSF protein kinase 2 (Homo sapiens) (UniProt P78362); experiment: Inhibition of human SRPK2 assessed as residual activity at 1 uM using MBP as substrate in presence of 33P-ATP by ProQinase assay relative to control
[9] = biological target: Serine/threonine-protein kinase PAK 3 (Homo sapiens) (UniProt O75914); experiment: Inhibition of PAK3 (unknown origin) assessed as remaining activity at 1 uM by Kinome scan method relative to control
Sequence of Serine/threonine-protein kinase PAK 3 (Homo sapiens) (O75914 whole entry, looked up): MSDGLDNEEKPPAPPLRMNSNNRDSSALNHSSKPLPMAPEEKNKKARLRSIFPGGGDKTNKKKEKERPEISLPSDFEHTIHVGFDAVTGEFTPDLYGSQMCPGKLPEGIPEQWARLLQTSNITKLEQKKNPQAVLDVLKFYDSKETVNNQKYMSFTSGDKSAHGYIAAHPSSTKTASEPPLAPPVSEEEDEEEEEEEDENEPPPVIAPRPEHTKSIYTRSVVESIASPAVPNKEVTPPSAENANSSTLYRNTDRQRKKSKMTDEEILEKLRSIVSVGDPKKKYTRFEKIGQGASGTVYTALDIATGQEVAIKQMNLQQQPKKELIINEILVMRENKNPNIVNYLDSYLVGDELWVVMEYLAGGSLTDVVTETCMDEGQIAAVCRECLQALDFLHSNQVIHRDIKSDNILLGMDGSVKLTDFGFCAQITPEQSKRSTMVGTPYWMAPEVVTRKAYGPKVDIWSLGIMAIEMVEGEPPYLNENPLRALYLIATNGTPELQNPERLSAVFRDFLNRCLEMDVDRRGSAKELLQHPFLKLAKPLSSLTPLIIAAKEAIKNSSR

[10] = biological target: SRSF protein kinase 3 (Homo sapiens) (UniProt Q9UPE1); experiment: Inhibition of SRPK3 (unknown origin) assessed as remaining activity at 1 uM by Kinome scan method relative to control
[11] = biological target: T2, Calcium/calmodulin-dependent protein kinase type IV (Homo sapiens) (UniProt Q16566); experiment: Inhibition of human CAMK4 assessed as residual activity at 1 uM using JUN as substrate in presence of 33P-ATP by ProQinase assay relative to control
T2 sequence (whole entry): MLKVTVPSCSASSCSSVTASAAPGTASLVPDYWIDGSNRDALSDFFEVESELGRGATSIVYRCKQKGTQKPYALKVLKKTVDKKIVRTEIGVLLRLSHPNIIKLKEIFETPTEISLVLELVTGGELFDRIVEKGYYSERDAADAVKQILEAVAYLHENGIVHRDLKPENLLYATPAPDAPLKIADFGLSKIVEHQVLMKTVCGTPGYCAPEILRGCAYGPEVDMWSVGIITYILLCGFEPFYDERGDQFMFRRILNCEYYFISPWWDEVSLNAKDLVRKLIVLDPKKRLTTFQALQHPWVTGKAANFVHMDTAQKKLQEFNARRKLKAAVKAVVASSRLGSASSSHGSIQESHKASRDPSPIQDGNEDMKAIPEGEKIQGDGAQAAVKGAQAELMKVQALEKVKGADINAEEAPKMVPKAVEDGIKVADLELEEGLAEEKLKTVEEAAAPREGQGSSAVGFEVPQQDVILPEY

[12] = biological target: T3, Aurora kinase C (Homo sapiens) (UniProt Q9UQB9); experiment: Inhibition of human AuroraC assessed as residual activity at 1 uM using bio-4xCHKT as substrate in presence of 33P-ATP by ProQinase assay relative to control
T3 sequence (whole entry): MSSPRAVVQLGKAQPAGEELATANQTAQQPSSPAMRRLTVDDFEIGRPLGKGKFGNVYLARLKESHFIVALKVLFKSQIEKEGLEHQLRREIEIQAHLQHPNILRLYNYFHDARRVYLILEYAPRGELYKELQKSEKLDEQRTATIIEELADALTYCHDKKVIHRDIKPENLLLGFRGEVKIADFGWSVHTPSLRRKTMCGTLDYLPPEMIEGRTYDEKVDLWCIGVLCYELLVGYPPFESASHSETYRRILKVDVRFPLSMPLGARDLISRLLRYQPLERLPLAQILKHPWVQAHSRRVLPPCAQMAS

[13] = biological target: Receptor tyrosine-protein kinase erbB-3 (Homo sapiens) (UniProt P21860); experiment: Inhibition of ERBB3 (unknown origin) assessed as remaining activity at 1 uM by Kinome scan method relative to control
[14] = biological target: Serine/threonine-protein kinase 38-like (Homo sapiens) (UniProt Q9Y2H1); experiment: Inhibition of NDR2 (unknown origin) assessed as remaining activity at 1 uM by Kinome scan method relative to control
[15] = biological target: Glycogen synthase kinase-3 beta (Homo sapiens) (UniProt P49841); experiment: Inhibition of human GSK3beta assessed as residual activity at 1 uM using RBER-CHKtide as substrate in presence of 33P-ATP by ProQinase assay relative to control
Sequence of Glycogen synthase kinase-3 beta (Homo sapiens) (P49841 whole entry, looked up): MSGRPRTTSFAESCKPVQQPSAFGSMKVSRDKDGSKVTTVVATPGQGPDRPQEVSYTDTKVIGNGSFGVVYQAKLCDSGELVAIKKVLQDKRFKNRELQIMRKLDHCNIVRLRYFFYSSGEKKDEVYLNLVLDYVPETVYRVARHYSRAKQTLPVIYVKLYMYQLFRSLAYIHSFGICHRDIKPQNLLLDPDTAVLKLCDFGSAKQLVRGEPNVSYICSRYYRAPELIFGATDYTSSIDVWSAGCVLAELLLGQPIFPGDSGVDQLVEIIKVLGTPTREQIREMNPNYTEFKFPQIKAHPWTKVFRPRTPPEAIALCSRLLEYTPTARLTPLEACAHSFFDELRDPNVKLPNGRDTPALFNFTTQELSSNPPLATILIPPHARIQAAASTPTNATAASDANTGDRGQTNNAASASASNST

[16] = biological target: Serine/threonine-protein kinase 4 (Homo sapiens) (UniProt Q13043); experiment: Inhibition of human MST1 assessed as residual activity at 1 uM using RB-CTF as substrate in presence of 33P-ATP by ProQinase assay relative to control

`O=C1c2ccc(Nc3ccc(F)cc3F)cc2CCc2ccc(OC[C@H](O)CO)cc21` [Skepinone-L] was tested, and the Activity [1] was 85%, the Activity [2] was 98% and the Activity [3] was 96%. For the same compound, the Activity [4] was 100%, the Activity [5] was 100% and the Activity [6] was 100%. It also gave an Activity [7] of 104%, an Activity [8] of 101% and an Activity [9] of 100%. It also gave an Activity [10] of 100%, an Activity [11] of 111% and an Activity [12] of 85%. For the same compound, the Activity [13] was 100%, the Activity [14] was 100% and the Activity [15] was 97%. The Activity [16] was 71%.
